The term IC50 denotes the midpoint of a concentration-inhibition curve.

Where two headings read alike, the source gives them in different places.

Experiment [1] deals with Tb-labeled inactive PDGFRβ (Homo sapiens (Human), UniProt P09619). The experiment can be described thus: biochemical. Type of experiment: binding.
The next experiment has as its target VEGFR2, unphosphorylated (Homo sapiens (Human), UniProt P35968). The experiment can be described thus: VEGFR ADP GLO assay. The note with it: 5 nM VEGFR2, 1.2 mM ATP, 1 mg/mL Srctide, 180 min. Type of experiment: biochemical. A digest of the protocol: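 Luminescent ADP detection after a 180-min room-temperature reaction of srctide plus ATP (2 mg/mL and 2.4 mM in 2× mix) in pH 7.5 HEPES buffer with DTT, Pluronic and ovalbumin. Compounds, 11 points from 10 µM, first pre-incubated 30 min with enzyme (2× mix 10 nM). IC50s fitted after scaling between DMSO and 1 µM TAK-593 controls.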

In a further experiment the target is PDGFRβ (Rattus norvegicus (Rat), UniProt Q05030). As to the kind of experiment: PDGFRβ Cellular Assay (PDGFRb P-Y751 HTRF, PDGF-BB stimulated A10 cells). Type of experiment: cell-based. A digest of the protocol:
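Rat A10 cells plated overnight were treated with compound for 3 h, stimulated with rat PDGF-BB (working stock 100 ng/mL in 10% FBS medium) for 10 min, then lysed.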
(In general: Time-resolved FRET reads energy transfer from a long-lived donor to a nearby acceptor.)

Experiment [2] has as its target His6-TEV-PDGFRβ (557-1016) (Homo sapiens (Human), UniProt P09619). The experiment can be described thus: PDGFRβ HTRF Assay. Type of experiment: biochemical.
Setting [3] is: A10 cells, 3 hours compound, 15 ng/mL PDGFbb for 10 minutes, read-out: PDGFR Cellular IC50.
Setting [4] is: 800 μM ATP, 0.5 μM TK-substrate biotin peptide, 30 min pre-incubation, 3 hours reaction, read-out: PDGFR HTRF IC50.

Chain of Tb-labeled inactive PDGFRβ (P09619 whole entry, looked up): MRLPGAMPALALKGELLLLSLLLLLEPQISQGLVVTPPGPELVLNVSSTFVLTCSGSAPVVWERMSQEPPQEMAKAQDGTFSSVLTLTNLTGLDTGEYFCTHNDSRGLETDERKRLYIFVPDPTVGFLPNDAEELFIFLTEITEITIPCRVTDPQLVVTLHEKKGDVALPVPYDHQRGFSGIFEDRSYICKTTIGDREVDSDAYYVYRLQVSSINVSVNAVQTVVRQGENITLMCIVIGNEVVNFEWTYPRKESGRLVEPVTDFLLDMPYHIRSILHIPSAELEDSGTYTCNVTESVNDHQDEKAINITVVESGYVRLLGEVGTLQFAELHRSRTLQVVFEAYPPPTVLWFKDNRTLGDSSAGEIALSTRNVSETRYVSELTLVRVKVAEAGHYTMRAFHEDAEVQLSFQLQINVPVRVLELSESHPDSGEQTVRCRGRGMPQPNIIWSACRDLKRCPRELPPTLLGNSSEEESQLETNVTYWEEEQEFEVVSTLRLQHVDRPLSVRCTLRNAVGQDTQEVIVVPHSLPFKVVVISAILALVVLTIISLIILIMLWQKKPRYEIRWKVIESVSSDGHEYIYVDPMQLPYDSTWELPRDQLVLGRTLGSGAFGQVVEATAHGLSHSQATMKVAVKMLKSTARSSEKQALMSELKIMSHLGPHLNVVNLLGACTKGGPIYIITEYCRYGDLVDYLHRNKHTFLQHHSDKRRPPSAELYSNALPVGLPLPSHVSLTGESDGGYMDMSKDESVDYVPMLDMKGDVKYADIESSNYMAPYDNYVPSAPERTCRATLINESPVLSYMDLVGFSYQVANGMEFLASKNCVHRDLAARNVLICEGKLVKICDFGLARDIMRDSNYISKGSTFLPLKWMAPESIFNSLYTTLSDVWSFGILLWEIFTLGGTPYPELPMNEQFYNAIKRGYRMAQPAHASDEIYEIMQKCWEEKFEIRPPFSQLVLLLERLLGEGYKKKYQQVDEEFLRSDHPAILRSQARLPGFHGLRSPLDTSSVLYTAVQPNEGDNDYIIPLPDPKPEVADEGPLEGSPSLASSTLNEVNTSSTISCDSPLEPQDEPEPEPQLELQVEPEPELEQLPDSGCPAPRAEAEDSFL
Chain of His6-TEV-PDGFRβ (557-1016) (P09619 whole entry, looked up): as above
Chain of PDGFRβ (Q05030 whole entry, looked up): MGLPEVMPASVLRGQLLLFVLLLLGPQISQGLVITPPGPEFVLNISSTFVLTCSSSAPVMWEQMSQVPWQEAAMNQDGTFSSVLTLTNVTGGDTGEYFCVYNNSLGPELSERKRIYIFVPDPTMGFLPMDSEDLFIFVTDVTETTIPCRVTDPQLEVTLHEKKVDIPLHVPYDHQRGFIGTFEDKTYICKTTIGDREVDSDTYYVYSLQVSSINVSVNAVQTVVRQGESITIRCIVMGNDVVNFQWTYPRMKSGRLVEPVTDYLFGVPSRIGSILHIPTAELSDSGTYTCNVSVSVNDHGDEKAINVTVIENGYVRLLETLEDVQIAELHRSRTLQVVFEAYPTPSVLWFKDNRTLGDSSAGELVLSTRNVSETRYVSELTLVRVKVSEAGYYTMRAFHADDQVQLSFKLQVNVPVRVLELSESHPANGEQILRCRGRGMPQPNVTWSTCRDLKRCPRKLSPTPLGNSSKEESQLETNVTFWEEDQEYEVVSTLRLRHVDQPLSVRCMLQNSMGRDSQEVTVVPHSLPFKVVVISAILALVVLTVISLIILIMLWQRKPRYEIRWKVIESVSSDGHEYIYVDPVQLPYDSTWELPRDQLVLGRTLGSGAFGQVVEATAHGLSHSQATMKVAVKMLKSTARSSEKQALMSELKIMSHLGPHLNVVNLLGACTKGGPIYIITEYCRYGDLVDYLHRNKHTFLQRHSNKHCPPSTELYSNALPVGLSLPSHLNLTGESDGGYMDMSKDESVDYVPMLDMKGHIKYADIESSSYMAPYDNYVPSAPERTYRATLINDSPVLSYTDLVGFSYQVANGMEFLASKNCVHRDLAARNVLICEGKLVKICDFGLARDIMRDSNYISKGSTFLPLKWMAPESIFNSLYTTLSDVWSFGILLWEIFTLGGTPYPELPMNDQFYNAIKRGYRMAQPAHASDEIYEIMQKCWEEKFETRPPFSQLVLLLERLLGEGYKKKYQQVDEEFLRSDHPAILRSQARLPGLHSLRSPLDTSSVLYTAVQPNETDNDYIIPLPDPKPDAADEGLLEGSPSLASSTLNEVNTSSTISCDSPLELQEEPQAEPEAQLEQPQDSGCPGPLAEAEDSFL
Chain of VEGFR2, unphosphorylated (P35968 whole entry, looked up): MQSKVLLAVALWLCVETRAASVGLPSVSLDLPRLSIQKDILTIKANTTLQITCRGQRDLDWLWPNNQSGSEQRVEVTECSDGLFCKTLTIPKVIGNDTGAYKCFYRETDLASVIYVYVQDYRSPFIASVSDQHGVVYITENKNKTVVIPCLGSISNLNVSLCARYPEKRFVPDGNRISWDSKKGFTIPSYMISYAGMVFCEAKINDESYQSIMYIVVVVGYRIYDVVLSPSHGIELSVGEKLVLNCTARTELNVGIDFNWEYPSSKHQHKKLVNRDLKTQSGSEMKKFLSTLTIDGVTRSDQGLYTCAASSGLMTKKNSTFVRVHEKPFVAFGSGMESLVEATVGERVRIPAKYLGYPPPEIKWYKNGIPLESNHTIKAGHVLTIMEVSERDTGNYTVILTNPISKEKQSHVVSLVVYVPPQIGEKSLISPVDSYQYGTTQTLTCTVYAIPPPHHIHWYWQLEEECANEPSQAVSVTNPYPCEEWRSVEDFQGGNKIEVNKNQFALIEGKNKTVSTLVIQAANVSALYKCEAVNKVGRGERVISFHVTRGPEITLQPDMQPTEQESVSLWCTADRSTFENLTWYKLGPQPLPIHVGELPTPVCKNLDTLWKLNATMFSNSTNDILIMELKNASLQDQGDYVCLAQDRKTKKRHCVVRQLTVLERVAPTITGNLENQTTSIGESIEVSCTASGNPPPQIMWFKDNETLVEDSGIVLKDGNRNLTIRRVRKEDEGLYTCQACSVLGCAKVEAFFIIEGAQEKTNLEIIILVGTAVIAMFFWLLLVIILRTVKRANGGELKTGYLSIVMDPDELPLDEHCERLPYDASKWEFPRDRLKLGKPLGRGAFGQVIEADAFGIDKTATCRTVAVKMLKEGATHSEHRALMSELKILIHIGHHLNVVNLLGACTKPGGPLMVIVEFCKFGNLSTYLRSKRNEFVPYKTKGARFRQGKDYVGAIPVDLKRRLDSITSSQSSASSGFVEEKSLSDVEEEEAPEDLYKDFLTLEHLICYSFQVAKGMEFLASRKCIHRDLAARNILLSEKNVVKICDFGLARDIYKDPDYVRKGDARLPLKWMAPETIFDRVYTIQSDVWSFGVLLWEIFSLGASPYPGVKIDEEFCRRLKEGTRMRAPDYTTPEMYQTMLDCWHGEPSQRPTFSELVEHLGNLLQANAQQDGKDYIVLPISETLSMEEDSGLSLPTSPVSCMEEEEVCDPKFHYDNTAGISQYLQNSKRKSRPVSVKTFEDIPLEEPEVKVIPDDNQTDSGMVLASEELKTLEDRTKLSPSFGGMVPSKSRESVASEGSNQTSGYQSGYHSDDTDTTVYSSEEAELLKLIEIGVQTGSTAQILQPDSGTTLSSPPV

`Cc1ncc(C(=O)NCCN2C[C@@H](C)O[C@@H](C)C2)cc1Nc1nn(C)c2nc(Nc3cnn(C)c3)ncc12` [Example 91, N-(2-(cis-2,6-dimethylmorpholino)ethyl)-6-methyl-5-((1-methyl-6-((1-methyl-1H-pyrazol-4-yl)amino)-1H-pyrazolo[3,4-d]pyrimidin-3-yl)amino)nicotinamide]: the IC50 in experiment [1] (read-out: PDGFR Lantha IC50) was 4.2 nM; at VEGFR2, unphosphorylated, above 7500 nM; at PDGFRβ (setting [3]), 44.3 nM; in experiment [2] (setting [4]) it was 0.46 nM.
For `Cc1ncc(C(=O)NCCN2CC(C)(C)C2)cc1Nc1nn(C)c2nc(Nc3cncnc3)ncc12` [Example 55, N-(2-(3,3-dimethylazetidin-1-yl)ethyl)-6-methyl-5-((1-methyl-6-(pyrimidin-5-ylamino)-1H-pyrazolo[3,4-d]pyrimidin-3-yl)amino)nicotinamide] the same measures were 9.5 nM, above 7500 nM, 275 nM and 0.55 nM.
For `Cc1ncc(C(=O)NCCN2CCC23CCC3)cc1Nc1nn(C)c2nc(Nc3cnn(C)c3)ncc12` [Example 149, N-(2-(1-azaspiro[3.3]heptan-1-yl)ethyl)-6-methyl-5-((1-methyl-6-((1-methyl-1H-pyrazol-4-yl)amino)-1H-pyrazolo [3,4-d]pyrimidin-3-yl)amino)nicotinamide] the same measures were 2.2 nM, 6560 nM, 25.4 nM and 0.36 nM.
As for `Cc1ncc(C(=O)NCCC2CCCCC2)cc1Nc1nn(C)c2nc(Nc3ccc(N4CCNCC4)nc3)ncc12` [Example 109, N-(2-cyclohexylethyl)-6-methyl-5-((1-methyl-6-((6-(piperazin-1-yl)pyridin-3-yl)amino)-1H-pyrazolo[3,4-d]pyrimidin-3-yl)amino)nicotinamide], the IC50 in experiment [1] (read-out: PDGFR Lantha IC50) is 4 nM; at VEGFR2, unphosphorylated, 167 nM; at PDGFRβ (setting [3]), 127 nM; in experiment [2] (setting [4]), 0.78 nM.
With “2-(3,3-dimethylazetidin-1-yl)-N-(6-methyl-5-((1-methyl-6-((1-methyl-1H-imidazol-4-yl)amino)-1H-pyrazolo[3,4-d]pyrimidin-3-yl)amino)pyridin-3-yl)acetamide [Example 141]”, the IC50 in experiment [1] (read-out: PDGFR Lantha IC50) is 12.5 nM; on VEGFR2, unphosphorylated, above 7500 nM; at PDGFRβ (setting [3]) it was 9.4 nM; in experiment [2] (setting [4]) it was 1.4 nM.
The like results for `Cc1ccc(C(=O)NCCN2CC(C)(C)C2)cc1Nc1nn(C)c2nc(Nc3cnn(C)c3)ncc12` [Example 64, N-(2-(3,3-dimethylazetidin-1-yl)ethyl)-4-methyl-3-((1-methyl-6-((1-methyl-1H-pyrazol-4-yl)amino)-1H-pyrazolo[3,4-d]pyrimidin-3-yl)amino)benzamide] were, in that order, 2.1 nM, 1030 nM, 8.9 nM and 0.26 nM.
For `CO[C@H]1CCN(CC(=O)Nc2cnc(C)c(Nc3nn(C)c4nc(Nc5cnn(C)c5)ncc34)c2)C1` [Example 136, (S)-2-(3-methoxypyrrolidin-1-yl)-N-(6-methyl-5-((1-methyl-6-((1-methyl-1H-pyrazol-4-yl)amino)-1H-pyrazolo[3,4-d]pyrimidin-3-yl)amino)pyridin-3-yl)acetamide] the same measures were 3.7 nM, above 7500 nM, 12.2 nM and 0.52 nM.
The like results for `Cc1ncc(C(=O)NCCN2CCCC(F)(F)C2)cc1Nc1nn(C)c2nc(Nc3cncnc3)ncc12` [Example 2, N-(2-(3,3-difluoropiperidin-1-yl)ethyl)-6-methyl-5-((1-methyl-6-(pyrimidin-5-ylamino)-1H-pyrazolo[3,4-d]pyrimidin-3-yl)amino)nicotinamide] were, in that order, 3.7 nM, above 7500 nM, 27.1 nM and 0.57 nM.
As for `Cc1nn(C)cc1Nc1ncc2c(Nc3cc(C(=O)NCCN4CCC(C)(C)C4)cnc3C)nn(C)c2n1` [Example 159, 5-((6-((1,3-dimethyl-1H-pyrazol-4-yl)amino)-1-methyl-1H-pyrazolo[3,4-d]pyrimidin-3-yl)amino)-N-(2-(3,3-dimethylpyrrolidin-1-yl)ethyl)-6-methylnicotinamide], the IC50 in experiment [1] (read-out: PDGFR Lantha IC50) is 13.3 nM; against VEGFR2, unphosphorylated, above 7500 nM; at PDGFRβ (setting [3]) it was 60.7 nM; in experiment [2] (setting [4]), 1.5 nM.
As for `Cc1ncc(C(=O)NCCN2CCCC[C@H]2C)cc1Nc1nn(C)c2nc(Nc3cnn(C)c3)ncc12` [Example 82, (R)-6-methyl-5-((1-methyl-6-((1-methyl-1H-pyrazol-4-yl)amino)-1H-pyrazolo[3,4-d]pyrimidin-3-yl)amino)-N-(2-(2-methylpiperidin-1-yl)ethyl)nicotinamide], the IC50 is 1.7 nM in experiment [1]; above 7500 nM against VEGFR2, unphosphorylated; 20.2 nM against PDGFRβ; 0.18 nM in experiment [2].
For `Cc1ncc(NC(=O)CN2CCC[C@@H]2C)cc1Nc1nn(C)c2nc(Nc3cnn(C4COC4)c3)ncc12` [Example 144, (S)—N-(6-methyl-5-((1-methyl-6-((1-(oxetan-3-yl)-1H-pyrazol-4-yl)amino)-1H-pyrazolo[3,4-d]pyrimidin-3-yl)amino)pyridin-3-yl)-2-(2-methylpyrrolidin-1-yl)acetamide], the IC50 in experiment [1] (read-out: PDGFR Lantha IC50) is 2.8 nM; on VEGFR2, unphosphorylated it was above 7500 nM; on PDGFRβ (setting [3]), 5.1 nM; in experiment [2] (setting [4]) it was 0.35 nM.
For `Cc1ncc(C(=O)NCCN(CCO)C2CCCC2)cc1Nc1nn(C)c2nc(Nc3cnn(C)c3)ncc12` [Example 97, N-(2-(cyclopentyl(2-hydroxyethyl)amino)ethyl)-6-methyl-5-((1-methyl-6-((1-methyl-1H-pyrazol-4-yl)amino)-1H-pyrazolo[3,4-d]pyrimidin-3-yl)amino)nicotinamide] the same measures were 2.4 nM, above 7500 nM, 101 nM and 0.46 nM.
For `Cc1ncc(C(=O)NCCN2CCCC2(C)C)cc1Nc1nn(C)c2nc(Nc3cnn4c3OCCC4)ncc12` [Example 163, 5-((6-((6,7-dihydro-5H-pyrazolo[5,1-b][1,3]oxazin-3-yl)amino)-1-methyl-1H-pyrazolo[3,4-d]pyrimidin-3-yl)amino)-N-(2-(2,2-dimethylpyrrolidin-1-yl)ethyl)-6-methylnicotinamide] the same measures were 805 nM, above 7500 nM, above 2000 nM and 86.4 nM.
For `Cc1ncc(C(=O)NCCN2CCCC2(C)C)cc1Nc1nn(C)c2nc(Nc3ccnc(N4CCOCC4)c3)ncc12` [Example 101, N-(2-(2,2-dimethylpyrrolidin-1-yl)ethyl)-6-methyl-5-((1-methyl-6-((2-morpholinopyridin-4-yl)amino)-1H-pyrazolo[3,4-d]pyrimidin-3-yl)amino)nicotinamide] the same measures were 2.2 nM, above 7500 nM, 15.5 nM and 0.38 nM.
Regarding `Cc1ncc(NC(=O)CN2CCC[C@@H]2C)cc1Nc1nn(C)c2nc(Nc3cn(C)cn3)ncc12` [Example 142, (S)—N-(6-methyl-5-((1-methyl-6-((1-methyl-1H-imidazol-4-yl)amino)-1H-pyrazolo[3,4-d]pyrimidin-3-yl)amino)pyridin-3-yl)-2-(2-methylpyrrolidin-1-yl)acetamide], the IC50 was 107 nM in experiment [1] (read-out: PDGFR Lantha IC50); above 7500 nM against VEGFR2, unphosphorylated; 13.4 nM on PDGFRβ (setting [3]); 4.66 nM in experiment [2] (setting [4]).
The like results for `Cc1ccc(C(=O)NCCN2CCC[C@@H]2C)cc1Nc1nn(C)c2nc(Nc3cnn(C)c3)ncc12` [Example 65, (S)-4-methyl-3-((1-methyl-6-((1-methyl-1H-pyrazol-4-yl)amino)-1H-pyrazolo[3,4-d]pyrimidin-3-yl)amino)-N-(2-(2-methylpyrrolidin-1-yl)ethyl)benzamide] were, in that order, 2.1 nM, 2400 nM, 10 nM and 0.22 nM.
`Cc1ncc(NC(=O)CN2CC(C)(C)C2)cc1Nc1nn(C)c2nc(Nc3cnn(C)c3)ncc12` [Example 77, 2-(3,3-dimethylazetidin-1-yl)-N-(6-methyl-5-((1-methyl-6-((1-methyl-1H-pyrazol-4-yl)amino)-1H-pyrazolo[3,4-d]pyrimidin-3-yl)amino)pyridin-3-yl)acetamide]: the IC50 in experiment [1] (read-out: PDGFR Lantha IC50) was 1.9 nM; at VEGFR2, unphosphorylated, 5110 nM; on PDGFRβ (setting [3]), 2.4 nM; in experiment [2] (setting [4]) it was 0.24 nM.
For the compound `Cc1ncc(C(=O)NCCN2C[C@H](C)O[C@@H](C)C2)cc1Nc1nn(C)c2nc(Nc3ccnc(N4CCC(CCO)CC4)c3)ncc12` [Example 112, N-(2-((2S,6S)-2,6-dimethylmorpholino)ethyl)-5-((6-((2-(4-(2-hydroxyethyl)piperidin-1-yl)pyridin-4-yl)amino)-1-methyl-1H-pyrazolo[3,4-d]pyrimidin-3-yl)amino)-6-methylnicotinamide], the IC50 in experiment [1] (read-out: PDGFR Lantha IC50) is 4.5 nM; against VEGFR2, unphosphorylated, above 7500 nM; at PDGFRβ (setting [3]), 84.4 nM; in experiment [2] (setting [4]), 0.57 nM.
